Test results from PubChem BioAssay (NCI).
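Results reflect a 48-hour exposure of cells in 96-well plates to compound at five concentrations. GI50 marks 50% less growth. The concentration for full growth arrest is given as TGI.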

Tests used:
Test in all cases: NCI tumour cell line growth inhibition, 48 h
[1] = tested on: SK-MEL-28 melanoma
[2] = tested on: NCI-H226 lung
[3] = tested on: ACHN renal
[4] = tested on: UACC-62 melanoma
[5] = tested on: A549 NSCLC
[6] = tested on: SF-268 CNS
[7] = tested on: UACC-257 melanoma
[8] = tested on: BT-549 breast
[9] = tested on: NCI-H522 lung
[10] = tested on: NCI/ADR-RES ovarian
[11] = tested on: SR leukemia
[12] = tested on: IGROV1 ovarian
[13] = tested on: OVCAR-3 ovarian
[14] = tested on: MALME-3M melanoma
[15] = tested on: CAKI-1 renal
[16] = tested on: NCI-H460 lung
[17] = tested on: MDA-MB-435
[18] = tested on: SNB-19 CNS
[19] = tested on: SW-620 colon
[20] = tested on: CCRF-CEM leukemia
[21] = tested on: 786-0 renal
[22] = tested on: LOX IMVI melanoma
[23] = tested on: MDA-MB-231 breast
[24] = tested on: PC-3 prostate
[25] = tested on: HCC-2998 colon
[26] = tested on: OVCAR-8 ovarian
[27] = tested on: SF-539 CNS
[28] = tested on: MOLT-4 leukemia
[29] = tested on: KM12 colon
[30] = tested on: NCI-H23 lung
[31] = tested on: OVCAR-5 ovarian
[32] = tested on: OVCAR-4 ovarian
[33] = tested on: HL-60(TB) leukemia
[34] = tested on: SK-MEL-2 melanoma
[35] = tested on: DU-145 prostate
[36] = tested on: HS 578T breast
[37] = tested on: M14 melanoma
[38] = tested on: EKVX NSCLC
[39] = tested on: HCT-15 colon
[40] = tested on: COLO 205 colon
[41] = tested on: UO-31 renal
[42] = tested on: A498 renal
[43] = tested on: T-47D breast
[44] = tested on: SNB-75 CNS
[45] = tested on: MCF7 breast
[46] = tested on: HOP-62 NSCLC
[47] = tested on: HOP-92 NSCLC
[48] = tested on: U251 CNS
[49] = tested on: SN12C renal
[50] = tested on: K-562 leukemia
[51] = tested on: SF-295 CNS
[52] = tested on: TK-10 renal
[53] = tested on: SK-MEL-5 melanoma
[54] = tested on: HCT-116 colon
[55] = tested on: RXF 393 renal
[56] = tested on: SK-OV-3 ovarian
[57] = tested on: HT29 colon

## COc1ccc(P2(=S)OCCOP(=S)(c3ccc(OC)cc3)S2)cc1 (stereo unspecified)
[1]
  TGI: > 100 µM
[2]
  TGI: > 100 µM
[3]
  TGI: > 100 µM
[4]
  TGI: > 100 µM
[5]
  TGI: > 100 µM
[6]
  TGI: > 100 µM
[7]
  TGI: > 79.8 µM
[8]
  TGI: > 79.9 µM
[9]
  TGI: 6.11 µM
[10]
  TGI: > 100 µM
[11]
  TGI: > 100 µM
[12]
  TGI: > 100 µM
[13]
  TGI: 6.11 µM
[14]
  TGI: > 100 µM
[15]
  TGI: > 100 µM
[16]
  TGI: > 32.2 µM
[17]
  TGI: 40.7 µM
[18]
  TGI: > 100 µM
[19]
  TGI: > 100 µM
[20]
  TGI: 25.1 µM
[21]
  TGI: > 42 µM
[22]
  TGI: 42.6 µM
[23]
  TGI: > 100 µM
[24]
  TGI: 5.48 µM
[25]
  TGI: 7.5 µM
[26]
  TGI: > 61.6 µM
[27]
  TGI: 6.7 µM
[28]
  TGI: > 39.5 µM
[29]
  TGI: > 100 µM
[30]
  TGI: > 100 µM
[31]
  TGI: > 100 µM
[32]
  TGI: > 100 µM
[33]
  TGI: > 23.3 µM
[34]
  TGI: > 100 µM
[35]
  TGI: > 100 µM
[36]
  TGI: > 100 µM
[37]
  TGI: > 100 µM
[38]
  TGI: > 100 µM
[39]
  TGI: > 100 µM
[40]
  TGI: 55.8 µM
[41]
  TGI: > 50.7 µM
[42]
  TGI: 7.05 µM
[43]
  TGI: > 100 µM
[44]
  TGI: > 100 µM
[45]
  TGI: 19.4 µM
[46]
  TGI: > 100 µM
[47]
  TGI: > 100 µM
[48]
  TGI: > 100 µM
[49]
  TGI: 33.9 µM
[50]
  TGI: > 100 µM
[51]
  TGI: > 27.6 µM
[52]
  TGI: > 100 µM
[53]
  TGI: > 41.9 µM
[54]
  TGI: > 100 µM

## CCOC(=O)c1cc(C(=O)c2cc(OC)cc(OC)c2)n2nc(C)ccc12
[1]
  GI50: > 100 µM
  TGI: > 100 µM
[2]
  GI50: > 100 µM
  TGI: > 100 µM
[3]
  GI50: 0.731 µM
  TGI: > 100 µM
[4]
  GI50: 0.477 µM
  TGI: > 100 µM
[5]
  GI50: 0.766 µM
  TGI: > 100 µM
[6]
  GI50: 0.676 µM
  TGI: > 100 µM
[55]
  GI50: 0.239 µM
  TGI: 3.16 µM
[56]
  GI50: 0.878 µM
  TGI: > 100 µM
[8]
  GI50: 1.99 µM
  TGI: > 100 µM
[9]
  GI50: 0.303 µM
  TGI: > 100 µM
[10]
  GI50: 0.308 µM
  TGI: 14.8 µM
[11]
  GI50: 0.0759 µM
  TGI: > 100 µM
[12]
  GI50: 0.943 µM
  TGI: > 100 µM
[13]
  GI50: 0.289 µM
  TGI: 2.11 µM
[16]
  GI50: 0.365 µM
  TGI: > 100 µM
[18]
  GI50: 0.752 µM
  TGI: > 100 µM
[19]
  GI50: 0.28 µM
  TGI: > 100 µM
[20]
  GI50: 0.348 µM
  TGI: > 100 µM
[57]
  GI50: 0.401 µM
  TGI: > 100 µM
[21]
  GI50: 0.523 µM
  TGI: > 100 µM
[22]
  GI50: 0.493 µM
  TGI: > 100 µM
[23]
  GI50: 1.7 µM
  TGI: > 100 µM
[24]
  GI50: 0.317 µM
  TGI: > 100 µM
[25]
  GI50: 3.34 µM
  TGI: > 100 µM
[26]
  GI50: 1.09 µM
  TGI: > 100 µM
[27]
  GI50: 0.349 µM
  TGI: 3.02 µM
[28]
  GI50: 0.527 µM
  TGI: > 100 µM
[29]
  GI50: 0.254 µM
  TGI: > 100 µM
[30]
  GI50: 1.29 µM
  TGI: > 100 µM
[31]
  GI50: 2.7 µM
  TGI: > 100 µM
[32]
  GI50: 1.45 µM
  TGI: > 100 µM
[33]
  GI50: 0.248 µM
  TGI: 0.797 µM
[34]
  GI50: 0.494 µM
  TGI: > 100 µM
[35]
  GI50: 0.906 µM
  TGI: > 100 µM
[36]
  GI50: 0.284 µM
  TGI: > 100 µM
[37]
  GI50: 0.251 µM
  TGI: > 100 µM
[38]
  GI50: 0.975 µM
  TGI: > 100 µM
[39]
  GI50: 0.28 µM
  TGI: > 100 µM
[41]
  GI50: 0.698 µM
  TGI: > 100 µM
[42]
  GI50: 0.388 µM
  TGI: > 100 µM
[43]
  GI50: 0.501 µM
  TGI: > 100 µM
[44]
  GI50: 0.384 µM
  TGI: > 100 µM
[45]
  GI50: 0.313 µM
  TGI: > 100 µM
[46]
  GI50: 0.691 µM
  TGI: > 100 µM
[47]
  GI50: 0.446 µM
  TGI: > 100 µM
[48]
  GI50: 0.549 µM
  TGI: > 100 µM
[49]
  GI50: 0.692 µM
  TGI: > 100 µM
[51]
  GI50: 0.311 µM
  TGI: 38.3 µM
[52]
  GI50: > 100 µM
  TGI: > 100 µM
[53]
  GI50: 0.276 µM
  TGI: > 100 µM
[54]
  GI50: 0.331 µM
  TGI: > 100 µM
